As a reminder, the IC50 is the concentration needed to halve the response being measured.

SMILES strings stand for the structures. Entries after “also recorded” stand apart in the source; their conditions may differ.

The test system of series [1] is ptD primary ovarian cancer cells. The experiment in a line: MTT assay in ptD cells. The settings on record: for dose of single agent giving virtually complete cell death (95% cell death) / IC50: ptD, 72 h; for dose of single agent giving virtually complete cell death (95% cell death): agent alone; for IC50: Homo sapiens. The series is classed as cell-based, human. Here is the method: Drug responses were evaluated in the well-established OVCAR5 cancer cell line and a variety of primary ovarian cancer cells lines derived from patient ascites (ptD, ptH, ptG, PKD1, PKD2).
(In general: Tetrazolium assays rely on reduction of a dye to a coloured formazan, in cell work by metabolically active cells.)

The subject of series [2] is OVCAR5 cells. The series can be described thus: MTT assay in OVCAR5 cells. Format: cell-based, human. Conditions: for dose of single agent giving virtually complete cell death (95% cell death): 72 h, agent alone; for IC50: Homo sapiens, OVCAR-5, 72 h. How it is done: (§1) Drug responses were evaluated in the well-established OVCAR5 cancer cell line and a variety of primary ovarian cancer cells lines derived from patient ascites ([…], PKD1, PKD2).

Series [3] has as its system c-JUN phosphorylation (canonical downstream target of JNKs). The experiment in a line: western blot of c-JUN phosphorylation in ptD cells. The series is classed as cell-based, human. Conditions: 25 uM, 30 min. A general note: A western blot detects proteins with antibodies after separation by electrophoresis.
Another series concerns the target T1, MISR2 (MISRII) (Rattus norvegicus, UniProt Q62893).
T1 construct: UGR tissue is dissected from 14.5d female fetal rats and cultured ex-vivo; from tissue; host or cells: fetal rat urogenital ridge (14.5d female), organ culture
T1 sequence (Q62893 18-557): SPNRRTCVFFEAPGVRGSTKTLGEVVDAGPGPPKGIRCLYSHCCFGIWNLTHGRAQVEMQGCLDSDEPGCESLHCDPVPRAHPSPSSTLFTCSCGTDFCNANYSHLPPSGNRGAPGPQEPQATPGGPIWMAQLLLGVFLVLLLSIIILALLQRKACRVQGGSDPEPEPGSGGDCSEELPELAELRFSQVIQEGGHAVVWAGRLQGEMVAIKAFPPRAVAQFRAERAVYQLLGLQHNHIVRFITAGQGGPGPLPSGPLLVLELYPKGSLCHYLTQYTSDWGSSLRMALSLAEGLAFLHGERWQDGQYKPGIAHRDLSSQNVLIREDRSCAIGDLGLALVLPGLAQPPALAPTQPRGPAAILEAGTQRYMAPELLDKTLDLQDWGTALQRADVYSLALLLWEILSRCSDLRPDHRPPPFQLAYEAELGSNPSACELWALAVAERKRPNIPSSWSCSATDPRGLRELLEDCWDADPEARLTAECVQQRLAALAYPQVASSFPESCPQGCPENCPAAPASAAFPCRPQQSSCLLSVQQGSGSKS
The experiment in a line: rat fetal urogenital ridge (UGR) assay. Conditions: UGR culture, 72 h. How it is done:
UGR tissue is dissected from 14.5d female fetal rats and cultured ex-vivo on a semi solid substrate (agarose droplet on a metal grid) suspended over media at the air/media interface. The UGR from each female is cultured for 72 h in presence of the drugs while the contralateral ridge is cultured in vehicle (DMSO) as a control. The regression of the Mullerian duct, which is specific to MIS activity, is measured in sections of UGR after fixing and embedding.

For series [4], the system named is OVCAR5 and primary ovarian cancer cell lines (ptD, ptH, ptG, PKD1, PKD2). The experiment in a line: MTT assay in a panel of ovarian cancer cell lines. The series is classed as cell-based, human. The settings on record: 72 h, all cell lines. Here is the method: as §1
A further series has as its system ptD cells. The experiment in a line: cell cycle distribution by PI staining and flow cytometry in ptD cells. The series is classed as cell-based, human. The text has this: (§2) This pattern is observed in both cells lines, but is particularly pronounced in OVCAR5 (FIG. 5C).
(In general: In flow cytometry, cells or beads pass a laser one at a time.)

Series [5] deals with OVCAR5 cells. The series can be described thus: cell cycle distribution by PI staining and flow cytometry in OVCAR5 cells. The series is classed as cell-based, human. Conditions: OVCAR5 synchronized by serum deprivation 24 h, 25 uM with 10% serum.
Text: as §2

A further series deals with CDKi P21. The series can be described thus: qPCR expression of CDKi P21 in ptD cells. Format: cell-based, human. The settings on record: 25 μM, 2-48 h. The text has this: (§3) To decipher the mechanism of cell cycle block observed by treatment with M-SP600, the inventors next assessed the expression of the kinases CDKi P15 and P21 by qPCR, since these kinases control G1/S transition.

The next series has as its system CDKi P15. The experiment in a line: qPCR expression of CDKi P15. Format: cell-based.
Text: as §3

Series [6] deals with PtD cells xenografted in the flank of nude mice. The series can be described thus: PtD xenograft in nude mice. The series is classed as in vivo. Conditions: 30 mg/kg/day for 3 consecutive days.
Series [7] deals with OVCAR5 cells xenografted in the flank of nude mice. The series can be described thus: OVCAR5 xenograft in nude mice. The series is classed as in vivo, mouse. The settings on record: 60 mg/kg/day, 5 days on 2 days off for 3 weeks. Here is the method: A longer experiment was subsequently carried out using OVCAR5 cells xenografted at 1×10^6 in the flank of nude mice, which were treated 72 h later in a 5 days on 2 days off schedule for 3 weeks at a dose of 60 mg/kg/day using 3 groups of 5 mice randomly selected.

The test system of another series is 300 kinases. The settings on record: 0.5 μM inhibitor, 10 uM ATP; cited from earlier work.
In another series the test system is JNKs. The settings on record: Bennet et al. 2001; cited from earlier work.

As for `COc1cccc2c1C(=O)c1c(O)c3c(c(O)c1C2=O)C[C@@](O)(C(=O)CO)C[C@@H]3O[C@H]1C[C@H](N)[C@H](O)[C@H](C)O1` [DOX, doxorubicin, reference compound], the “dose of single agent giving virtually complete cell death (95% cell death)” value in series [1] was “greater than 300 μM”; with OVCAR5 cells [2], 300 µM.
As to `CCOc1nc(NC(=O)Cc2cc(OC)ccc2OC)cc(N)c1C#N` [JNK inhibitor VIII, reference compound], the c-JUN phosphorylation result in [3] is reported as “inhibited”.
On to `Cn1nc2c3c(cccc31)C(=O)c1ccccc1-2` [M-SP600, N1-methyl-1,9-pyrazolothrone], for which the “size of Wolffian ducts” value at MISR2 (MISRII) is reported as “smaller Wolffian ducts”. Also, the IC50 in series [1] was found to be 6.25 µM; in the series on OVCAR5 cells [2] it was 12.5 µM. Besides, the “dose of single agent giving virtually complete cell death (95% cell death)” value (in [1]; with OVCAR5 cells [2]) was 50 µM throughout. The “inhibition of cancer cell growth” value in [4] is reported as “inhibited”. Further, the cell cycle distribution entry in the series with ptD cells (asynchronous ptD cells, 25 uM, 24 h) is “marked reduction in cells in S phase accompanied by an accumulation of cells particularly in G1 and less so in G2; also recorded: more pronounced with M-SP600 than SP600”. Also, the cell cycle block result is given as “causes a G1 block” in the series on ptD cells (ptD synchronized by serum deprivation 24 h, 25 uM with 10% serum) and “causes a G1 block” in the series on OVCAR5 cells [5]. Also, the “expression of P21 by qPCR” value with CDKi P21 is recorded as “induce P21; also recorded: greater for the M-SP600 than the SP600”. For the same compound, the “expression of P15” value with CDKi P15 was “upregulation of P21 and P15”. The tolerability result in series [6] is given as “well tolerated”. Further, the tumor growth result in series [6] (one week after implant) is “strong trend emerged of inhibition of tumor growth”; in series [7] (versus control at day 15), “significantly inhibited”; in series [7] (versus control at day 15, listed as MSP600, 60 mg/kg/day), “significantly lower than control”. The “number of kinases inhibited at more than 50%” value with 300 kinases was 4. Further, the “inhibition of JNKs” value with JNKs is given as “does not inhibit JNKs”.
Consider `Oc1c2ccccc2c2c3c(cccc13)N=N2` [SP600, 1,9-pyrazoloathrone, reference compound], for which the concentration for half-maximal inhibition (IC50) in series [1] worked out at 6.25 µM; in the series on OVCAR5 cells [2], 12.5 µM. Besides, the tolerability result in series [6] is given as “well tolerated”.
On to `CCCS(=O)(=O)Nc1ccc(F)c(C(=O)c2c[nH]c3ncc(-c4ccc(Cl)cc4)cc23)c1F` [Vemurafinib], for which the “sensitivity of cells to the drug” value in [1] (ptD cells with BRAF V600E mutation) was “exquisitely sensitive”.

The values above are taken from US20160250190A1, “N-METHYL PYRAZOLOANTHRONE FOR TREATMENT OF CANCER” (THE GENERAL HOSPITAL CORPORATION, priority 2013, published 2016).
